Measured values from US6218393A, “Anthranilic acid derivatives as multi drug resistance modulators” (priority 1997, dated 2001).

Experiments:
AR 1.0 cells [1] = experiment: Potentiation index with doxorubicin titration; format: cell-based, mouse; details: for Potentiation Index at RMA concentration 10 nM: Table C1, RMA 10 nM; for Potentiation Index at RMA concentration 30 nM: Table C1, RMA 30 nM; for Potentiation Index at RMA concentration 50 nM: Table C1, RMA 50 nM; for Potentiation Index at RMA concentration 100 nM: Table C1, RMA 100 nM
Method: The EMT6 mouse mammary carcinoma cell line and the MDR resistant subline AR 1.0 were cultured in RPMI 1640 medium containing 10% foetal calf serum and 2 mM glutamine at 37° C. in 5% CO2. Cells were passaged between 1 in 200 and 1 in 2000 in the case of the parental cell line and between 1 in 20 and 1 in 200 in the case of the MDR resistant subline, after trypsinisation (0.25% trypsin, 0.2 gl^-1, EDTA). […]
(b) Cells were cultured for four days with a titration of doxorubicin (0.263 nM-17.24 μM) in the presence of a fixed concentration of each compound. Proliferation was quantified as described by Skehen et al, loc cit. The IC50 (concentration required to reduce proliferation to 50% of the untreated controls) for doxorubicin alone and with each compound were derived and used to calculate the potentiation index (PI): [formula]

AR 1.0 cells [2] = experiment: Drug accumulation assay: daunorubicin accumulation in AR 1.0 cells; format: cell-based; details: Mus musculus, 100% = accumulation with verapamil 100 μM, 1 hr, 37° C.
Method: The EMT6 mouse mammary carcinoma cell line and the MDR resistant subline AR 1.0 were cultured in RPMI 1640 medium containing 10% foetal calf serum and 2 mM glutamine at 37° C. in 5% CO2. Cells were passaged between 1 in 200 and 1 in 2000 in the case of the parental cell line and between 1 in 20 and 1 in 200 in the case of the MDR resistant subline, after trypsinisation (0.25% trypsin, 0.2 gl^-1, EDTA).
AR 1.0 cells were seeded 48 hours prior to assay into 96 well opaque culture plates (Canberra Packard).

IC50 (AR 1.0 cells [2]) [nM]	SMILES	Potentiation Index at RMA concentration 10 nM (AR 1.0 cells [1])	Potentiation Index at RMA concentration 30 nM (AR 1.0 cells [1])	Potentiation Index at RMA concentration 50 nM (AR 1.0 cells [1])	Potentiation Index at RMA concentration 100 nM (AR 1.0 cells [1])	Potentiation Index at RMA concentration 300 nM (AR 1.0 cells [1]; Table C2, RMA 300 nM)	Potentiation Index at RMA concentration 500 nM (AR 1.0 cells [1]; Table C2, RMA 500 nM)
184	CCN(CCc1ccc(NC(=O)c2ccccc2NC(=O)c2cnc3ccccc3c2)cc1)Cc1ccc(OC)c(OC)c1 [compound 9636]	2.6	22	46	131	–	–
347	COc1cc2c(cc1OC)C(C)N(CCc1ccc(NC(=O)c3ccccc3NC(=O)c3cnc4ccccc4c3)cc1)CC2 (stereo not shown) [compound 9625, Quinoline-3-carboxylic acid (2-{4-[2-(6,7-dimethoxy-1-methyl-3,4-dihydro-1H-isoquinolin 2-yl)-ethyl]-phenylcarbamoyl}-phenyl)-amide]	1	4	7	60	–	–
38	COc1cc2c(cc1OC)CN(CC(O)COc1ccc(NC(=O)c3ccccc3NC(=O)c3cnc4ccccc4c3)cc1)CC2 (stereo not shown) [compound 9648, Quinoline-3-carboxylic acid (2-{4-[3-(6,7-dimethoxy-3,4-dihydro-1H-isoquinolin-2-yl)-2-hydroxy-propoxy]-phenylcarbamoyl}-phenyl)-amide]	16	34	–	–	–	–
213	COc1cc2c(cc1OC)CN(CCc1ccc(NC(=O)c3cc(SC)ccc3NC(=O)c3cnc4ccccc4c3)cc1)CC2 [compound 9615, Quinoline-3-carboxylic acid (2-{4-[2-(6,7-dimethoxy-3,4-dihydro-1H-isoquinolin-2-yl)-ethyl]-phenylcarbamoyl}-4-methylsulfanyl-phenyl)-amide]	2	23	85	175	–	–
71	COc1cc(CCN2CCc3cc(OC)c(OC)cc3C2)ccc1NC(=O)c1ccccc1NC(=O)c1cnc2ccccc2c1 [compound 9651, Quinoline-3-carboxylic acid (2-{4-[2-(6,7-dimethoxy-3,4-dihydro-1H-isoquinolin-2-yl)-ethyl]-2-methoxy-phenylcarbamoyl}-phenyl)-amide]	–	–	1.1	2.2	–	–
400	COc1cc2c(cc1OC)CN(CCNC(=O)c1ccccc1NC(=O)c1ccc(-c3ccccc3)cc1)CC2 [compound 9294, Biphenyl-4-carboxylic acid {2-[2-(6,7-dimethoxy-3,4-dihydro-1H-isoquinolin-2-yl)-ethylcarbamoyl]-phenyl}-amide]	–	–	–	–	18	71
6420	COc1cc2c(cc1OC)CN(CCCc1cccc(NC(=O)c3ccccc3NC(=O)c3cnc4ccccc4c3)c1)CC2 [compound 9660, Quinoline-3-carboxylic acid (2-{3-[3-(6,7-dimethoxy-31 4-dihydro-1H-isoquinolin-2-yi)-propyl]-phenyicarbamoyi}-phenyi)-atnide]	–	1.1	1.2	1.4	–	–
194	COc1cc(CN(C)CCc2ccc(NC(=O)c3ccccc3NC(=O)c3cnc4ccccc4c3)cc2)cc(OC)c1OC [compound 9640, Quinoline-3-carboxylic acid [2-(4-{2-[methyl-(3,4,5-trimethoxy-benzyl)-amino]-ethyl}-phenylcarbamoyl)-phenyl]-amide]	1	2.5	4.6	23.8	–	–
370	COc1cc2c(cc1OC)CN(CCc1ccc(NC(=O)c3cc(N(C)C)ccc3NC(=O)c3cnc4ccccc4c3)cc1)CC2 [compound 9595, Quinoline-3-carboxylic acid (2-{4-[2-(6,7-dimethoxy-3,4-dihydro-1H-isoquinolin-2-yl)-ethyl]-phenylcarbamoyl}-4-dimethylamino-phenyl)-amide]	1.45	1.93	2.99	45	–	–
1680	O=C(Nc1ccccc1C(=O)Nc1ccc(CCN2CCc3cc4c(cc3C2)OCO4)cc1)c1cnc2ccccc2c1 [compound 9664, Quinoline-3-carboxylic acid (2-{4-[2-(7,8-dihydro-5H-[1,3]dioxolo[4,5-g]isoquinolin-6-yl)-ethyl]-phenylcarbamoyl}-phenyl)-amide]	1	1.9	37	116	–	–
389	CCOc1cc2c(cc1OCC)CN(CCc1ccc(NC(=O)c3ccccc3NC(=O)c3cnc4ccccc4c3)cc1)CC2 [compound 9665, Quinoline-3-carboxylic acid (2-{4-[2-(6,7-diethoxy-3,4-dihydro-1H-isoquinolin-2-yl)-ethyl]-phenylcarbamoyl}-phenyl)-amide]	1.4	7	28	50	–	–
669	Cc1ccc(CN(C)CCc2ccc(NC(=O)c3ccccc3NC(=O)c3cnc4ccccc4c3)cc2)cc1C [compound 9631, Quinoline-3-carboxylic acid [2-(4-{2-[(3,4-dimethyl-benzyl)-methyl-amino]-ethyl}-phenylcarbatnoyl)-phenyl]-amide]	1	9	20	67	–	–
33	COc1ccc(CN(C)CCc2ccc(NC(=O)c3ccccc3NC(=O)c3cnc4ccccc4c3)cc2)cc1O [compound 9647, Quinoline-3-carboxylic acid [2-(4-{2-[(3-hydroxy-4-methoxy-benzyl)-methyl-amino]-ethyl}-phenylcarbamoyl)-phenyl]-amide]	–	–	1	6	–	–
1400	COc1cc2c(cc1OC)CN(CCc1ccc(NC(=O)c3ccccc3NC(=O)c3ccoc3)cc1)CC2 [compound 9526, Furan-3-carboxylic acid (2-{4-[2-(6,7-dimethoxy-3,4-dihydro-1H-isoquinolin-2-yl)-ethyl]-phenylcarbamoyl}-phenyl)-amide]	–	–	–	–	–	–
76	COc1ccc(CN(C)CCc2ccc(NC(=O)c3cc(F)c(F)cc3NC(=O)c3cnc4ccccc4c3)cc2)cc1OC [compound 9667, Quinoline-3-carboxylic acid [2-(4-{2-[(3,4-dimethoxy-benzyl)-methyl-amino]-ethyl}-phenylcarbamoyl)-4,5-difiuoro-phenyl]-amide]	–	–	–	–	–	–
1500	COc1cc2c(cc1OC)CN(CCNC(=O)c1cccc(C)c1NC(=O)c1ccc(C(C)C)cc1)CC2 [compound 9398, 2-(4-Isopropyl-benzoylamino)-N-[2-(6,7-dimethoxy-3,4-dihydro-1H-isoquinolin-2-yl)-ethyl]-3-methyl-benzamide]	–	–	–	–	–	–
> 10000	COc1cc2c(cc1OC)CN(CCNC(=O)c1ccccc1NC(=O)c1ccncc1)CC2 [compound 9384, N-{2-[2-(6,7-Dimethoxy-3,4-dihydro-1H-isoquinolin-2-yl)-ethylcarbamoyl]-phenyl}-isonicotinamide]	–	–	–	–	–	–
343	COc1cc(CCN2CCc3cc(OC)c(OC)cc3C2)ccc1NC(=O)c1ccccc1NC(=O)c1cnc(C)cn1 [compound 9657, 5-Methyl-pyrazine-2-carboxylic acid (2-{4-[2-(6,7-dimethoxy-3,4-dihydro-1H-isoquinolin-2-yl)-ethyl]-2-methoxy-phenylcarbamoyl}-phenyl)-amide]	–	–	–	–	–	–
3000	COc1cc2c(cc1OC)CN(CCNC(=O)c1cc3ccccc3cc1NC(=O)c1ccc(C(C)C)cc1)CC2 [compound 9410, 3-(4-Isopropyl-benzoylamino)-naphthalene-2-carboxylic acid [2-(6,7-dimethoxy-3,4-dihydro-1H-isoquinolin-2-yl)-ethyl]-amide]	–	–	–	–	–	–
1380	COc1cc(CCN2CCc3cc(OC)c(OC)cc3C2)ccc1NC(=O)c1ccccc1NC(=O)c1cnccn1 [compound 9659, Pyrazine-2-carboxylic acid (2-{4-[2-(6,7-dimethoxy-3,4-dihydro-1H-isoquinolin-2-yl)-ethyl]-2-methoxy-phenylcarbamoyl}-phenyl)-amide]	–	–	–	–	–	–
800	COc1cc2c(cc1OC)CN(CCNC(=O)c1ccc(Cl)cc1NC(=O)c1ccc(C(C)C)cc1)CC2 [compound 9350, 2-(4-Isopropyl-benzoylamino)-N-[2-(6,7-dimethoxy-3,4-dihydro-1H-isoquinolin-2-yl)-ethyl]-4-chioro-benzamide]	–	–	–	–	–	–
